# Data reported in patent US10851115B2, “Heterocyclic compounds as RSV inhibitors” (Enanta Pharmaceuticals, Inc., priority 2017, dated 2020).
# Test system: Human RSV-A (“Long” strain)
# Experiment: RSV in vitro cytoprotection assay in HEp-2 cells (ATPlite readout)
# Assay type: cell-based
# Details: human respiratory syncytial virus, 96 h; HEp-2 cells, 4-day incubation, ATPlite; read-out: Human RSV-A (“Long” strain) EC50
# Source text: RSV is a single stranded negative sense RNA virus that causes respiratory tract infections which can be dangerous to infants, the elderly, and immunosuppressed individuals. Currently there is no vaccine, and therapeutic options are both costly and of limited effectiveness. These approved treatments are Ribavirin, and Palivizumab/Synagis (a monoclonal antibody). RSV has two genotypes, A and B, which differ primarily in the structure of the virus' surface “G” attachment protein. Our current primary screen focusses on RSV-A and uses an in vitro cytoprotection assay where compounds are added in 2-fold dilutions to cells which are then subjected to fully replicative viral particles. Cell viability is measured several days later along with separate measurements of compound cytotoxicity. This report focuses on the results of our most recent screening of compounds.
# HEp-2 cells, (originally derived from tumors grown in irradiated-cortisonised weanling rats that had been injected with epidermoid carcinoma tissue from a person's larynx, but later found to be indistinguishable from HeLa cells by PCR DNA analysis), were used for the culturing of genotype A, “Long” strain RSV. Flasks were inoculated with RSV and viral stocks were collected once cytopathic effect (CPE) was greater than 90%. Viral stocks in 25% sucrose media were snap frozen using liquid nitrogen to increase viral stability. Viral stock titers were quantified by tissue culture infectious dose 50% (TCID50) using 8,000 cells per well and 3-fold viral dilutions across a 96-well plate, cultured for 4 days.
# Following extensive parameter testing, the final assay is run as follows: HEp-2 cells are seeded into the inner 60 wells of a 96-well plate at 8,000 cells per well in a volume of 50 μL using Growth Media (DMEM without phenol red, 1% L-Glut, 1% Penn/Strep, 1% nonessential amino acids, 10% FBS). 2-Fold serial dilutions of control and test compounds are added to the wells in duplicate in a total volume of 25 μL. Viral stock is then added to the wells in a volume of 25 μL, bringing the total volume of each well to 100 μL. Each 96-well plate has a control column of 6 wells with cells and virus but no compound (negative control, max CPE), a column with cells but no compound or virus (positive control, minimum CPE), and a column with no cells or virus or compound (background plate/reagent control). The control wells with cells but no virus are given an additional 25 uL of growth media containing an equal quantity of sucrose as those wells receiving the viral stock in order to keep consistent in media and volume conditions. The outer wells of the plate are filled with 125 μL of growth media to act as a thermal and evaporative moat around the test wells. Following a 4-day incubation period, the plates are read using ATPlite (50 uL added per well), which quantifies the amount of ATP (a measure of cell health) present in each well. Assay plates are read using the Envision luminometer. In parallel, cytotoxicity is examined on an additional 96-well plate treated in an identical manner, but substituting the 25 μL of viral stock for 25 μL of growth media. […] EC50 ranges are as follows: A<0.01 μM; B 0.01-0.05 μM; C>0.05 μM.
row,SMILES,EC50 [nM]
1,O=C(Nc1c(F)cccc1F)c1cc2c(o1)-c1ncccc1N(C(=O)c1ccc(NC(=O)c3cc4c(nc3N3CC5(CCOCC5)C3)CCC4)cc1)CC2 [Example 119],< 10
2,O=C(Nc1ccc(C(=O)N2CCc3cc(-c4nc5cccc(Cl)c5[nH]4)sc3-c3ncc(F)cc32)cc1)c1cccnc1N1CC2(CCOCC2)C1 [Example 57],10 to 50
3,Cc1cnc(N2CC3(CCOCC3)C2)c(C(=O)Nc2ccc(C(=O)N3CCc4cc(C(=O)Nc5nccs5)sc4-c4ncccc43)cc2)c1 [Example 35],< 10
4,Cc1cnc(N2CC3(CCOCC3)C2)c(C(=O)Nc2ccc(C(=O)N3CCc4cc(C(=O)NCc5ccco5)sc4-c4ncccc43)cc2)c1 [Example 24],< 10
5,Cc1cnc(N2CC3(CCOCC3)C2)c(C(=O)Nc2ccc(C(=O)N3CCc4cc(C(=O)Nc5cccnc5)sc4-c4ncccc43)cc2)c1 [Example 20],< 10
6,Cc1ccc2c(n1)-c1sc(C(=O)Nc3c(F)cccc3F)cc1CCN2C(=O)c1ccc(NC(=O)c2ccc(C)nc2N2CC3(CCOCC3)C2)cc1 [Example 144],10 to 50
7,O=C(Nc1c(F)cccc1F)c1cc2c(s1)-c1ncc(F)cc1N(C(=O)c1ccc(NC(=O)c3cccnc3N3CC4(CCOCC4)C3)cc1)CC2 [Example 55],< 10
8,Cc1ccc(C(=O)Nc2ccc(C(=O)N3CCc4c(sc(C(=O)Nc5c(C)cccc5F)c4F)-c4ncccc43)cc2)c(N2CC3(CCOCC3)C2)n1 [Example 83],< 10
9,O=C(Nc1c(F)cccc1Cl)c1cc2c(s1)-c1ccncc1N(C(=O)c1ccc(NC(=O)c3cccnc3N3CC4(CCOCC4)C3)cc1)CC2 [Example 2],10 to 50
10,Cc1cccc(F)c1NC(=O)c1cc2c(s1)-c1cccnc1N(C(=O)c1ccc(NC(=O)c3cccnc3N3CC4(CCOCC4)C3)cc1)CC2 [Example 50],> 50
11,Cc1ccc(C(=O)Nc2ccc(C(=O)N3CCc4c(sc(C(=O)Nc5ncccc5F)c4F)-c4ncccc43)cc2)c(N2CC3(CCOCC3)C2)n1 [Example 84],< 10
12,O=C(Nc1c(F)cccc1C(F)(F)F)c1cc2c(o1)-c1ncc(F)cc1N(C(=O)c1ccc(NC(=O)c3cc4c(nc3N3CC5(CCOCC5)C3)CCC4)cc1)CC2 [Example 107],< 10
13,Cc1cnc2c(c1)N(C(=O)c1ccc(NC(=O)c3cccnc3N3CC4(CCOCC4)C3)cc1)CCc1cc(C(=O)Nc3c(F)cccc3Cl)sc1-2 [Example 162],< 10
14,Cc1cnc(N2CC3(CCOCC3)C2)c(C(=O)Nc2ccc(C(=O)N3CCc4cc(NC(=O)c5ccccc5)sc4-c4ncccc43)cc2)c1 [Example 155],< 10
15,Cc1cnc(N2CC3(CCOCC3)C2)c(C(=O)Nc2ccc(C(=O)N3CCc4cc(C(=O)Nc5c(F)cc(F)cc5F)sc4-c4cc(C)sc43)cc2)c1 [Example 129],> 50
16,Cc1cnc(N2CC3(CCOCC3)C2)c(C(=O)Nc2ccc(C(=O)N3CCc4cc(C(=O)Nc5c(F)cc(F)cc5F)oc4-c4ccncc43)cc2)c1 [Example 122],> 50
17,Cc1cnc(N2CC3(CCOCC3)C2)c(C(=O)Nc2ccc(C(=O)N3CCc4cc(C(=O)Nc5c(F)cccc5Cl)sc4-c4nc(C)ccc43)cc2)c1 [Example 142],10 to 50
18,O=C(Nc1c(F)cc(F)cc1Cl)c1cc2c(s1)-c1ncc(F)cc1N(C(=O)c1ccc(NC(=O)c3cccnc3N3CC4(CCOCC4)C3)cc1)CC2 [Example 59],< 10
19,Cc1cnc(N2CC3(CCOCC3)C2)c(C(=O)Nc2ccc(C(=O)N3CCc4cc(-c5nc6ccccc6[nH]5)sc4-c4ncc(F)cc43)cc2)c1 [Example 58],< 10
20,Cc1cnc(N2CC3(CCOCC3)C2)c(C(=O)Nc2ccc(C(=O)N3CCc4cc(C(=O)Nc5c(F)cccc5C(F)(F)F)oc4-c4ccncc43)cc2)c1 [Example 126],> 50
21,O=C(Nc1ccc(C(=O)N2CCc3cc(-c4nc5ccccc5[nH]4)oc3-c3ncccc32)cc1)c1cc2c(nc1N1CC3(CCOCC3)C1)CCC2 [Example 120],10 to 50
22,Cc1cnc(N2CC3(CCOCC3)C2)c(C(=O)Nc2ccc(C(=O)N3CCc4cc(C(=O)Nc5c(C)cccc5C#N)sc4-c4nc(C)ccc43)cc2)c1 [Example 141],> 50

# The remaining lines, values ahead:
row,EC50 [nM],SMILES
1,< 10,Cc1cnc(N2CC3(CCOCC3)C2)c(C(=O)Nc2ccc(C(=O)N3CCc4cc(C(=O)Nc5c(Cl)cccc5Cl)sc4-c4ncc(F)cc43)cc2)c1 [Example 66]
2,10 to 50,Cc1cnc(N2CCC3(CC2)COC3)c(C(=O)Nc2ccc(C(=O)N3CCc4cc(C(=O)Nc5c(C)cccc5C#N)sc4-c4ncccc43)cc2)c1 [Example 92]
3,10 to 50,Cc1cnc(N2CC3(CCOCC3)C2)c(C(=O)Nc2ccc(C(=O)N3CCc4cc(-c5nc6ccccc6[nH]5)sc4-c4ncccc43)cc2)c1 [Example 38]
4,< 10,Cc1cnc(N2CCC3(CC2)COC3)c(C(=O)Nc2ccc(C(=O)N3CCc4cc(C(=O)Nc5c(Cl)cccc5Cl)sc4-c4ncccc43)cc2)c1 [Example 91]
5,10 to 50,Cc1cnc(N2CC3(CCOCC3)C2)c(C(=O)Nc2ccc(C(=O)N3CCc4cc(C(=O)N[C@@H]5CCOC5)sc4-c4ncccc43)cc2)c1 [Example 17]
6,10 to 50,Cc1cnc(N2CC3(CCOCC3)C2)c(C(=O)Nc2ccc(C(=O)N3CCc4cc(C(=O)N[C@H]5CCOC5)sc4-c4ncccc43)cc2)c1 [Example 18]
7,< 10,Cc1ccc(C(=O)Nc2ccc(C(=O)N3CCc4cc(C(=O)Nc5c(F)cccc5Cl)sc4-c4ncccc43)cc2)c(N2CC3(CCOCC3)C2)n1 [Example 44]
8,10 to 50,Cc1cnc(N2CCC3(CC2)COC3)c(C(=O)Nc2ccc(C(=O)N3CCc4cc(-c5nc6cccc(F)c6[nH]5)sc4-c4ncccc43)cc2)c1 [Example 97]
9,10 to 50,O=C(Nc1ccc(C(=O)N2CCc3cc(-c4nc5cccc(C(F)(F)F)c5[nH]4)sc3-c3ncc(F)cc32)cc1)c1cccnc1N1CC2(CCOCC2)C1 [Example 60]
10,10 to 50,Cc1cnc(N2CCC3(CC2)COC3)c(C(=O)Nc2ccc(C(=O)N3CCc4cc(C(=O)Nc5c(F)cccc5C(F)(F)F)sc4-c4ncccc43)cc2)c1 [Example 94]
11,< 10,Cc1cnc(N2CC3(CCOCC3)C2)c(C(=O)Nc2ccc(C(=O)N3CCc4cc(C(=O)NCc5ccccn5)sc4-c4ncccc43)cc2)c1 [Example 26]
12,< 10,Cc1ccc(C(=O)Nc2ccc(C(=O)N3CCc4c(sc(-c5nc6cccc(F)c6[nH]5)c4F)-c4ncccc43)cc2)c(N2CC3(CCOCC3)C2)n1 [Example 85]
13,> 50,O=C(Nc1ccc(C(=O)N2CCc3cc(-c4nc5ccccc5[nH]4)sc3-c3ncccc32)cc1)c1cccnc1N1CC2(CCOCC2)C1 [Example 6]
14,10 to 50,Cc1cnc(N2CC3(CCOCC3)C2)c(C(=O)Nc2ccc(C(=O)N3CCc4cc(C(=O)Nc5c(F)cccc5F)oc4-c4ccncc43)cc2)c1 [Example 121]
15,> 50,Cc1cnc(N2CC3(CCOCC3)C2)c(C(=O)Nc2ccc(C(=O)N3CCc4cc(-c5nc6cccc(F)c6[nH]5)oc4-c4ccncc43)cc2)c1 [Example 127]
16,< 10,Cc1ccc(C(=O)Nc2ccc(C(=O)N3CCc4cc(NC(=O)c5c(F)cccc5F)sc4-c4ncccc43)cc2)c(N2CC3(CCOCC3)C2)n1 [Example 157]
17,< 10,Cc1cnc(N2CC3(CCOCC3)C2)c(C(=O)Nc2ccc(C(=O)N3CCc4cc(C(=O)Nc5ncc(C)s5)sc4-c4ncccc43)cc2)c1 [Example 16]
18,< 10,Cc1cnc(N2CC3(CCOCC3)C2)c(C(=O)Nc2ccc(C(=O)N3CCc4cc(C(=O)Nc5c(Cl)cncc5Cl)sc4-c4ncccc43)cc2)c1 [Example 37]
19,< 10,Cc1cnc(N2CC3(CCOCC3)C2)c(C(=O)Nc2ccc(C(=O)N3CCc4cc(NC(=O)c5ncccc5F)sc4-c4ncccc43)cc2)c1 [Example 154]
20,< 10,Cc1cnc(N2CC3(CCOCC3)C2)c(C(=O)Nc2ccc(C(=O)N3CCc4cc(-c5nc6ccccc6[nH]5)sc4-c4ncc(C)cc43)cc2)c1 [Example 137]
21,< 10,Cc1cnc(N2CC3(CCOCC3)C2)c(C(=O)Nc2ccc(C(=O)N3CCc4cc(C(=O)NC[C@H]5CCCO5)sc4-c4ncccc43)cc2)c1 [Example 28]
22,< 10,Cc1ccc(C(=O)Nc2ccc(C(=O)N3CCc4c(sc(-c5nc6ccccc6[nH]5)c4F)-c4ncccc43)cc2)c(N2CC3(CCOCC3)C2)n1 [Example 82]

# Same assay, conditions: human respiratory syncytial virus, HEp-2
row,SMILES,EC50 [nM]
1,"O=C(Nc1ccccc1F)N[C@H]1N=C(c2ccccc2)c2ccccc2NC1=O [RSV-604, reference compound]",~2400
